Experiment in all cases: NCI tumour cell line growth inhibition, 48 h
The subject of test [1] is TK-10 renal.
The test system of test [2] is MDA-MB-231 breast.
In test [3] the test system is UO-31 renal.
Test [4] concerns BT-549 breast.
For test [5], the system named is HOP-92 NSCLC.
In test [6] the test system is ACHN renal.
Test [7] concerns SK-MEL-5 melanoma.
For test [8], the system named is M14 melanoma.
In test [9] the test system is UACC-257 melanoma.
Test [10] has as its system OVCAR-3 ovarian.

Each structure is given as a SMILES string. Several values for one entry are separate records, joined by “and”; a condition that tells them apart may be missing. Equal values may be shown once.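 Following 48 hours of exposure in 96-well plates, responses at five concentrations were used to interpolate endpoints linearly. GI50 = concentration required for 50% inhibition of growth. The concentration for full growth arrest is given as TGI.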 Where only a bound is given, the exact number is not on record here.

For the compound `COc1cc(CCc2cc(NC(=O)c3ccc(N4C[C@@H](C)N[C@@H](C)C4)cc3)n[nH]2)cc(OC)c1`, the GI50 in test [1] was > 10 µM and 10.4 µM; in [2] it was > 10 µM and 5.81 µM; in test [3] it was 2.84 µM and 2.7 µM; in [4], 5.58 µM and 1.08 µM; in test [5] it was 1.95 µM and 1.96 µM; in test [6], 9.45 µM and 4.41 µM. Further, the GI50 in [7] was 9.72 µM and 3.83 µM; in test [8] it was 7.13 µM and 2.77 µM; in [9], > 10 µM and 2.08 µM; in test [10] it was > 10 µM and 15.7 µM. Also, the TGI is > 10 µM and 23.6 µM in [1]; > 10 µM and 19.7 µM in [2]; > 10 µM and 13.9 µM in [3]; > 10 µM and 17.2 µM in [4]; > 10 µM and 12.8 µM in test [5]; > 10 µM and 15.3 µM in test [6]. For the same compound, the TGI in test [7] is > 10 µM and 12.7 µM; in [8], > 10 µM and 10.9 µM; in [9] it was > 10 µM and 5.31 µM; in test [10], > 10 µM and 30 µM.

Regarding `COc1cc2cc(Oc3ccc(NC(=O)Nc4cccc(C(F)(F)F)c4)cc3)c(C)nc2cc1OCCN1CCCCC1`, the GI50 in [1] is 1.83 µM; in test [2], 1.36 µM; in test [3] it was 1.45 µM; in test [4] it was 1.78 µM; in test [5], 1.08 µM; in test [6], 1.69 µM. Also, the GI50 in [7] was 1.71 µM; in test [8] it was 1.79 µM; in test [9], 1.86 µM; in [10] it was 1.71 µM. The TGI in test [1] was determined as 3.36 µM; in test [2], 2.73 µM; in test [3], 2.79 µM; in test [4] it was 3.28 µM; in [5], 2.34 µM; in test [6] it was 3.06 µM. Further, the TGI in test [7] amounted to 3.16 µM; in [8], 3.27 µM; in test [9] it was 3.48 µM; in test [10] it was 3.15 µM.

`O/N=C1\CCc2cc(-c3nc(C4CCNCC4)[nH]c3-c3ccncc3)ccc21`: the GI50 in test [1], in test [2], in test [3], in test [4], in test [5] and in [6] was greater than 25 µM in each case. The GI50 in test [7] is greater than 25 µM; in test [8] it was 7.57 µM; in test [9] it was 5.17 µM; in test [10], greater than 25 µM. Besides, the TGI in test [1], in [2], in test [3], in test [4], in test [5] and in test [6] was greater than 25 µM throughout. Also, the TGI in test [7], in [8], in [9] and in [10] was greater than 25 µM in each case.

`Cc1ccc(S(=O)(=O)NC(CCC(=O)Nc2ccc(Cl)cc2)C(=O)Nc2ccc(Cl)cc2)cc1` (centres undefined): the GI50 is 2.95 µM in [1]; 0.263 µM in test [2]; 0.401 µM in test [3]; 0.967 µM in [4]; 0.805 µM in [5]; 0.248 µM in test [6]. The GI50 in [7] was 0.235 µM; in [8], 0.0541 µM; in [9], 0.702 µM; in test [10], 0.93 µM. For the same compound, the TGI in test [1] stood at 10 µM; in test [2], 4.23 µM; in [3] it was 7.28 µM; in test [4], 6.71 µM; in test [5], 2.76 µM; in test [6] it was 6.57 µM. The TGI in [7] turned out to be 3.94 µM; in test [8], 6.58 µM; in [9], 7.5 µM; in [10], 5.8 µM.

With `Cc1ccc(S(=O)(=O)N/N=C/C(Br)=C(/Br)C(=O)O)cc1`, the TGI in test [1] was determined as 22.9 µM; in test [2] it was 36 µM; in [3], 20 µM; in test [4], 20.7 µM; in [5], 39.6 µM; in test [6], 8.75 µM. Besides, the TGI in [7] stood at 25.8 µM; in [8], 18.2 µM; in test [9] it was 26.8 µM; in [10], 20.2 µM.

Consider `C[C@H]1[C@H](OC(=O)CCC(=O)O)O[C@@H]2O[C@]3(C)CC[C@H]4[C@H](C)CC[C@@H]1[C@@]24OO3`, for which the TGI in [1] was 11.6 µM; in [2], 35.4 µM; in [3] it was 7.38 µM; in test [4] it was 4.55 µM; in test [5] it was 2.38 µM; in test [6], 14.4 µM. Moreover, the TGI in [7] was 11.3 µM; in test [8], 14.8 µM; in test [9], greater than 100 µM; in [10] it was 15.2 µM. Further, the GI50 in test [2] is 2.34 µM; in [3], 0.398 µM; in test [4] it was 0.292 µM; in test [5] it was 0.214 µM; in test [6], 0.921 µM; in test [7] it was 0.315 µM. Moreover, the GI50 is 0.777 µM in test [8], 3.36 µM in test [9] and 0.415 µM in test [10].

`COc1cc2c(cc1OC)C(=O)C(Br)CC2` (centres undefined): the GI50 in test [1] was 5.17 µM; in test [2] it was 3.56 µM; in test [3], 2.38 µM; in test [4], 2.15 µM; in test [5] it was 2.63 µM; in [6], 1.86 µM. The GI50 in [7] is 1.7 µM; in test [8] it was 2.72 µM; in test [9], 3.02 µM; in test [10], 2.5 µM. Besides, the TGI in test [1] turned out to be 17.8 µM; in test [2], 13.4 µM; in [3] it was 6.77 µM; in test [4] it was 5.85 µM; in test [5], 12.2 µM; in test [6], 3.7 µM. Besides, the TGI in test [7] worked out at 3.19 µM; in [8], 7.1 µM; in test [9] it was 11.3 µM; in test [10], 6.88 µM.
